IC50 and EC50 data for 23 molecules are collected here from US10336762B2 (priority 2017, dated 2019).

In one test the target is IRAK4 enzyme (Homo sapiens (Human), UniProt Q9NWZ3). Nature of the test: biochemical. Type of test: biochemical.
The next test concerns TNFα. Put plainly: cells. Format: cell-based, human. The note with it: read-out: EC50 TNF.
[1] abbreviates: IRAK4 enzyme, TR-FRET, 500 μM ATP.
Setting [2] is: Homo sapiens, Monocyte, LPS-stimulated human monocytes, TNFα content.

Each structure is given as a SMILES string. pEC50, pIC50: −log10 of the molar value. Structures can show the parent of a compound that is named as a salt. Where two headings read alike, the source gives them in different places. A value given as a limit tells only on which side of the number the result lay.

IRAK4 enzyme, sequence (Q9NWZ3 whole entry): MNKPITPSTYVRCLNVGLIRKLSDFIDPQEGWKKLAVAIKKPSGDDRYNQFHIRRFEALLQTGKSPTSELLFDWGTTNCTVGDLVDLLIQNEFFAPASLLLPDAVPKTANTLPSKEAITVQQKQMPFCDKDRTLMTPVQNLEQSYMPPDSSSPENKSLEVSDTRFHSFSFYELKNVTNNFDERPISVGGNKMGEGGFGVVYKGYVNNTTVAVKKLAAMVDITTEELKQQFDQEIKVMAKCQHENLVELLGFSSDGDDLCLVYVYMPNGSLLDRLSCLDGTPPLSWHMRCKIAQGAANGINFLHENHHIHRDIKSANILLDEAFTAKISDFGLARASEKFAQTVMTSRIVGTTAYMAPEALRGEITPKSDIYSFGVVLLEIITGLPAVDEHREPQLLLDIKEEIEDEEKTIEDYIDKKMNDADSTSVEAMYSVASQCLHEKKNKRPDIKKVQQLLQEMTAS

Usually pIC50 stands for −log10 of the IC50, conventionally taken in molar units. By pEC50 is commonly meant the negative decadic logarithm of the EC50, by convention in mol/L. On to `CC(C)(O)[C@H](F)CNC(=O)c1cnc(-c2ccc3cc(C#N)cnn23)cc1NC1CC1CO` (stereo partly drawn) [Example 303, 6-(3-cyanopyrrolo[1,2-b]pyridazin-7-yl)-N-((R)-2-fluoro-3-hydroxy-3-methylbutyl)-4-((2-(hydroxymethyl)cyclopropyl)amino)nicotinamide], for which the pIC50 against IRAK4 enzyme (setting [1]) is more than 9.00. Moreover, the pEC50 with TNFα (setting [2]) was 7.59.

`CC(C)(C)OC(=O)NC12CCC(Nc3cc(-c4ccc5cc(C#N)cnn45)ncc3C(=O)NC[C@@H](F)C(C)(C)O)(CC1)CC2` [Example 304, (R)-tert-butyl (4-((2-(3-cyanopyrrolo[1,2-b]pyridazin-7-yl)-5-((2-fluoro-3-hydroxy-3-methylbutyl)carbamoyl)pyridin-4yl)amino)bicyclo[2.2.2]octan-1-yl)carbamate]: the pIC50 on IRAK4 enzyme (setting [1]) is 8.40. The pEC50 in the test on TNFα (setting [2]) is 6.17.

Consider `CC(C)(C)OC(=O)N[C@H]1CC[C@H](Nc2cc(-c3ccc4cc(C#N)cnn34)ncc2C(=O)NC[C@@H](F)C(C)(C)O)CC1` [Example 305, tert-butyl ((1R,4r)-4-((2-(3-cyanopyrrolo[1,2-b]pyridazin-7-yl-5-(((R)-2-fluoro-3-hydroxy-3-methylbutyl)carbamoyl)pyridin-4-yl)amino)cyclohexyl) carbamate], for which, at IRAK4 enzyme (setting [1]), the pIC50 is 9.00. For the same molecule, the pEC50 with TNFα (setting [2]) is 6.47.

In turn, `CC(=O)N[C@@H]1CC[C@@H](Nc2cc(-c3ccc4cc(C#N)cnn34)ncc2C(=O)NC[C@@H](F)C(C)(C)O)C1` [Example 306, 4-(((1R,3R)-3-acetamidocyclopentyl)amino)-6-(3-cyano-pyrrolo[1,2-b]pyridazin-7-yl)-N-((R)-2-fluoro-3-hydroxy-3-methylbutyl) nicotinamide] gave a pIC50 against IRAK4 enzyme (setting [1]) of 8.52. The pEC50 in the test with TNFα (setting [2]) was 6.34.

Consider `CC(=O)N[C@H]1CC[C@@H](Nc2cc(-c3ccc4cc(C#N)cnn34)ncc2C(=O)NC[C@@H](F)C(C)(C)O)C1` [Example 307, 4-(((1R,3S)-3-acetamidocyclopentyl)amino)-6-(3-cyano-pyrrolo[1,2-b]pyridazin-7-yl)-N-((R)-2-fluoro-3-hydroxy-3-methylbutyl) nicotinamide], for which the pIC50 against IRAK4 enzyme (setting [1]) is 8.70. For the same molecule, the pEC50 in the test with TNFα (setting [2]) is 6.49.

On to `CC(C)(O)[C@H](F)CNC(=O)c1cnc(-c2ccc3cc(C#N)cnn23)cc1N[C@@H]1CC[C@@H](N)C1` [Example 308, 4-(((1R,3R)-3-aminocyclopentyl)amino)-6-(3-cyano-pyrrolo[1,2-b]pyridazin-7-yl)-N-((R)-2-fluoro-3-hydroxy-3-methylbutyl) nicotinamide], for which the pIC50 at IRAK4 enzyme (setting [1]) was more than 9.00. Moreover, the pEC50 in the test on TNFα (setting [2]) was 7.34.

Regarding `CC(C)(O)[C@H](F)CNC(=O)c1cnc(-c2ccc3cc(C#N)cnn23)cc1N[C@@H]1CC[C@H](N)C1` [Example 309, 4-(((1R,3S)-3-aminocyclopentyl)amino)-6-(3-cyanopyrrolo[1,2-b]pyridazin-7-yl)-N-((R)-2-fluoro-3-hydroxy-3-methylbutyl)nicotinamide], the pIC50 at IRAK4 enzyme (setting [1]) was 8.70. The pEC50 with TNFα (setting [2]) was 6.21.

In the case of `CC(C)(O)[C@H](F)CNC(=O)c1cnc(-c2ccc3cc(C#N)cnn23)cc1N[C@H]1CC[C@@H](N)C1` [Example 310, 4-(((1S,3R)-3-aminocyclopentyl)amino)-6-(3-cyanopyrrolo[1,2-b]pyridazin-7-yl)-N-((R)-2-fluoro-3-hydroxy-3-methylbutyl)nicotinamide], the pIC50 against IRAK4 enzyme (setting [1]) is 8.70. In the test on TNFα (setting [2]), the pEC50 was 6.44.

For the molecule `COC(=O)NC12CCC(Nc3cc(-c4ccc5cc(C#N)cnn45)ncc3C(=O)NC[C@@H](F)C(C)(C)O)(CC1)CC2` [Example 311, (R)-methyl (4-((2-(3-cyano-pyrrolo[1,2-b]pyridazin-7-yl)-5-((2-fluoro-3-hydroxy-3-methylbutyl)carbamoyl)pyridin-4-yl)amino)bicyclo[2.2.2]octan-1-yl)carbamate], at IRAK4 enzyme (setting [1]), the pIC50 is more than 9.00. Further, in the test on TNFα (setting [2]), the pEC50 is 7.82.

Turning to `CC(=O)N[C@@H]1CC[C@H](Nc2cc(-c3ccc4cc(C#N)cnn34)ncc2C(=O)NC[C@@H](F)C(C)(C)O)C1` [Example 312, 4-(((1S,3R)-3-acetamidocyclopentyl)amino)-6-(3-cyano-pyrrolo[1,2-b]pyridazin-7-yl)-N-((R)-2-fluoro-3-hydroxy-3-methylbutyl) nicotinamide], on IRAK4 enzyme (setting [1]), the pIC50 is 8.70. Moreover, the pEC50 in the test on TNFα (setting [2]) is 6.70.

Molecule `CC(C)(O)[C@H](F)CNC(=O)c1cnc(-c2ccc3cc(C#N)cnn23)cc1N[C@H]1CC[C@H](NC(=O)C(F)(F)F)CC1` [Example 313, 6-(3-cyanopyrrolo[1,2-b]pyridazin-7-yl)-N-((R)-2-fluoro-3-hydroxy-3-methylbutyl)-4-(((1r,4R)-4-(2,2,2-trifluoroacetamido)cyclohexyl)amino) nicotinamide] had a pIC50 on IRAK4 enzyme (setting [1]) of 9.00. In addition, the pEC50 in the test on TNFα (setting [2]) is 7.43.

For `COC(=O)N[C@H]1CC[C@H](Nc2cc(-c3ccc4cc(C#N)cnn34)ncc2C(=O)NC[C@@H](F)C(C)(C)O)CC1` [Example 314, methyl ((1R,4r)-4-((2-(3-cyanopyrrolo[1,2-b]pyridazin-7-yl)-5-(((R)-2-fluoro-3-hydroxy-3-methylbutyl)carbamoyl)pyridin-4-yl)amino)cyclo-hexyl)carbamate], the pIC50 on IRAK4 enzyme (setting [1]) is more than 9.00. Further, the pEC50 in the test with TNFα (setting [2]) was 7.70.

In turn, `CC(C)(O)[C@H](F)CNC(=O)c1cnc(-c2ccc3cc(C#N)cnn23)cc1N[C@H]1CC[C@H](NS(C)(=O)=O)CC1` [Example 315, 6-(3-cyanopyrrolo[1,2-b]pyridazin-7-yl)-N-((R)-2-fluoro-3-hydroxy-3-methylbutyl)-4-(((1r,4R)-4-(methylsulfonamido)cyclohexyl)amino)nicotinamide] gave a pIC50 against IRAK4 enzyme (setting [1]) of more than 9.00. Also, in the test on TNFα (setting [2]), the pEC50 was 7.23.

On to `CC(C)(O)[C@H](F)CNC(=O)c1cnc(-c2ccc3cc(C#N)cnn23)cc1N[C@H]1CC[C@H](N)CC1` [Example 316, 4-(((1r,4R)-4-aminocyclohexyl)amino)-6-(3-cyanopyrrolo[1,2-b]pyridazin-7-yl)-N-((R)-2-fluoro-3-hydroxy-3-methylbutyl)nicotinamide hydrochloride], for which the pIC50 on IRAK4 enzyme is more than 9.00. The pEC50 with TNFα (Homo sapiens, Monocyte) was 6.87.

The molecule `CC(=O)NC12CCC(Nc3cc(-c4ccc5cc(C#N)cnn45)ncc3C(=O)NC[C@@H](F)C(C)(C)O)(CC1)CC2` [Example 317, (R)-4-((4-acetamido-bicyclo[2.2.2]octan-1-yl)amino)-6-(3-cyano-pyrrolo[1,2-b]pyridazin-7-yl)-N-(2-fluoro-3-hydroxy-3-methylbutyl) nicotinamide] gave a pIC50 on IRAK4 enzyme (setting [1]) of more than 9.00. For the same molecule, the pEC50 with TNFα (setting [2]) was 7.96.

`CC(C)(O)[C@H](F)CNC(=O)c1cnc(-c2ccc3cc(C#N)cnn23)cc1NC12CCC(N)(CC1)CC2` [Example 318, (R)-4-((4-amino-bicyclo[2.2.2]octan-1-yl)amino)-6-(3-cyano-pyrrolo[1,2-b]pyridazin-7-yl)-N-(2-fluoro-3-hydroxy-3-methylbutyl)nicotinamide] showed a pIC50 on IRAK4 enzyme (setting [1]) of more than 9.00. Moreover, the pEC50 with TNFα (setting [2]) was 7.64.

`CC(C)(O)[C@H](F)CNC(=O)c1cnc(-c2ccc3cc(C#N)cnn23)cc1N[C@H]1CC[C@@H](NC(=O)C(F)(F)F)CC1` [Example 319, 6-(3-cyanopyrrolo[1,2-b]pyridazin-7-yl)-N-((R)-2-fluoro-3-hydroxy-3-methyl-butyl)-4-(((1s,4S)-4-(2,2,2-trifluoroacetamido)cyclo-hexyl)amino)nicotinamide] had a pIC50 against IRAK4 enzyme (setting [1]) of 7.72. For the same molecule, the pEC50 with TNFα (setting [2]) was 5.65.

On to `CC(=O)N[C@H]1CC[C@@H](Nc2cc(-c3ccc4cc(C#N)cnn34)ncc2C(=O)NC[C@@H](F)C(C)(C)O)CC1` [Example 320, 4-(((1s,4S)-4-acetamidocyclohexyl)amino)-6-(3-cyano-pyrrolo[1,2-b]pyridazin-7-yl)-N-((R)-2-fluoro-3-hydroxy-3-methylbutyl) nicotinamide], for which the pIC50 at IRAK4 enzyme (setting [1]) was 8.52. The pEC50 in the test with TNFα (setting [2]) was 5.72.

On to `CC(C)(O)[C@H](F)CNC(=O)c1cnc(-c2ccc3cc(C#N)cnn23)cc1NC1CC1CO` (stereo partly drawn) [Example 321, 6-(3-cyanopyrrolo[1,2-b]pyridazin-7-yl)-N-((R)-2-fluoro-3-hydroxy-3-methylbutyl)-4-((2-(hydroxymethyl)cyclo-propyl)amino)nicotinamide], for which the pIC50 at IRAK4 enzyme (setting [1]) is more than 9.00. Moreover, in the test on TNFα (LPS-stimulated human monocytes, TNFα content), the pEC50 was 7.42.

At IRAK4 enzyme (setting [1]), `CC(C)Nc1cc(-c2ccc3cc(C#N)cnn23)ncc1C(=O)N[C@H]1CCOC[C@@H]1F` [Example 322, 6-(3-cyanopyrrolo[1,2-b]pyridazin-7-yl)-N-((3R,4S)-3-fluorotetrahydro-2H-pyran-4-yl)-4-(isopropylamino) nicotinamide] showed a pIC50 of 8.30. Further, the pEC50 with TNFα (setting [2]) was 6.77.

On to `CC(C)Nc1cc(-c2ccc3cc(C#N)cnn23)ncc1C(=O)N[C@@H]1CCOC[C@H]1F` [Example 323, 6-(3-cyanopyrrolo[1,2-b]pyridazin-7-yl)-N-((3S,4R)-3-fluoro-tetrahydro-2H-pyran-4-yl)-4-(isopropylamino) nicotinamide], for which, at IRAK4 enzyme (setting [1]), the pIC50 is 8.30. In addition, in the test on TNFα (setting [2]), the pEC50 is 6.73.

Molecule `C[C@@H](O)C(=O)N1CCC(Nc2cc(-c3ccc4cc(C#N)cnn34)ncc2C(=O)NC[C@@H](F)C(C)(C)O)CC1` [Example 324, 6-(3-cyanopyrrolo[1,2-b]pyridazin-7-yl)-N-((R)-2-fluoro-3-hydroxy-3-methylbutyl)-4-((1-((R)-2-hydroxy-propanoyl)piperidin-4-yl)amino)nicotinamide] showed a pIC50 against IRAK4 enzyme (setting [1]) of 8.70. The pEC50 in the test on TNFα (setting [2]) was 6.80.

Turning to `CC1(C(=O)N2CCC(Nc3cc(-c4ccc5cc(C#N)cnn45)ncc3C(=O)NC[C@@H](F)C(C)(C)O)CC2)COC1` [Example 325, (R)-6-(3-cyanopyrrolo[1,2-b]pyridazin-7-yl)-N-(2-fluoro-3-hydroxy-3-methylbutyl)-4-((1-(3-methyloxetane-3-carbonyl)piperidin-4-yl)amino)nicotinamide], the pIC50 against IRAK4 enzyme (setting [1]) is 8.52. Also, in the test on TNFα (setting [2]), the pEC50 was 6.64.
